Entries after “also recorded” stand apart in the source; their conditions may differ.
Assays:
Assay type in all cases: cell-based, human
[1] = system: VCAM-1 protein expression; assay: ox-LDL-induced VCAM-1 protein expression in HUVECs (Western blotting); conditions: 200 nM, 5 μg/ml ox-LDL
Method: (§1) FIG. 4A, FIG. 4B, FIG. 4C, FIG. 4D and FIG. 4E depict the effect of lead molecules on ox-LDL-induced the activation of MAPKs in HUVECs, VCAM-1 expression and monocyte adhesion onto HUVECs. […] (FIG. 4B) Western blot analyses showing phospho-p38MAPK expression in HUVECs following exposure to 200 nM of each compound for 30 min, and subsequently exposed to 5 μg/mL ox-LDL for 6 hours. […] (FIG. 4D) The variation of VCAM-1 mRNA expression levels with different concentrations of the led compounds. The concentrations are indicated on the X-axis and the VCAM-1 mRNA levels are shown on the Y-axis. The plots for all five molecules are shown in separate colors. […] Graphs show data as mean (±SD); n=3 (for Western blot and PCR assays) or n=20 (for monocyte adhesion assay). *P<0.01 vs. control; #P<0.01 or <0.05 vs. ox-LDL group.
(§2) It is known that the activation of LOX-1 by ox-LDL in endothelial cells stimulates the expression of leukocyte adhesion molecules^26. In this study, VCAM-1 expression in HUVECs in the presence of 5 μg/ml ox-LDL was measured. […] VCAM-1 mRNA expression in HUVECs exposed to 5 μg/mL ox-LDL for 6 hrs was also measured.
HUVECs were plated into 6-well cell culture plates. When the cells were reached 70% confluence, they were treated with 200 nM of each of 5 molecules for 30 min, and subsequently exposed to […] ox-LDL for 6 h. After washing with PBS for 2 times, the cells were treated with Cell Lysis Buffer (Promega, Madison, Wis.) with protease Inhibitor and phosphatase Inhibitor (Sigma-Aldrich, St. Louis, Mo.). The protein concentrations were measured by Bradford protein assay. Proteins (20 tg) were separated by electrophoresis in 12% precast SDS-PAGE gels, and were transferred onto Nitrocellulose Blotting Membrane (GE Healthcare Life Science, Piscataway, N.J.). The membranes were then incubated with LOX-1, VCAM-1 (Abcam, Cambridge, Mass.), ERK1/2, phospho-ERK1/2, phospho-p38MAPK (Cell Signaling Technology, Inc., Danvers, Mass.), or […] (Santa Cruz Biotechnology, Inc., Dallas, Tex.) primary antibodies (1:1000˜1:2000) in blocking solution at 4° C. overnight. Following wash with TBS-1 for 3 times, the blots were incubated with HRP-conjugated secondary antibodies (1:10000) in blocking solution for 1 hour at room temperature. After 3 washes with PBS, the blots were treated with Western Blotting Luminol Reagents (Santa Cruz Biotechnology) for 3 min and then exposed to Blue Basic Autorad Film (GeneMate, Kaysville, Utah). The protein bands were scanned by a Gel Doc™ XR System (Bio-Rad, Hercules, Calif.), and the density of each band was quantified by Image J software. The relative expression of target proteins was calculated with comparison to […] bands.

VCAM-1 mRNA = assay: ox-LDL-induced VCAM-1 mRNA expression in HUVECs (q-PCR); conditions: 5 μg/mL ox-LDL for 6 hrs
Method: FIG. 4A, FIG. 4B, FIG. 4C, FIG. 4D and FIG. 4E depict the effect of lead molecules on ox-LDL-induced the activation of MAPKs in HUVECs, VCAM-1 expression and monocyte adhesion onto HUVECs. […] (FIG. 4B) Western blot analyses showing phospho-p38MAPK expression in HUVECs following exposure to 200 nM of each compound for 30 min, and subsequently exposed to 5 μg/mL ox-LDL for 6 hours. […] (FIG. 4D) The variation of VCAM-1 mRNA expression levels with different concentrations of the led compounds. The concentrations are indicated on the X-axis and the VCAM-1 mRNA levels are shown on the Y-axis. The plots for all five molecules are shown in separate colors. […]
as §2
HUVECs were plated into 12-well plates, and treated with 0, 20, 200 and 2000 nM of each of 5 molecules […] for 30 min, and subsequently exposed to […] ox-LDL for 6 h at 37° C. […] Data was analyzed by using MX3000P software. Relative mRNA expression was quantified using the comparative threshold cycle (Ct) method. […]

[2] = system: adhesion of monocytes to HUVECs; assay: Monocyte adhesion assay on HUVECs; conditions: 200 nM; for effect on monocyte adhesion to HUVECs (in words): ox-LDL treated
Method: as §1
The ox-LDL-induced expression of adhesion molecules, such as VCAM-1, facilitates the adhesion of inflammatory cells, such as monocytes.
Human monocytes were isolated from blood from the healthy donors and cultured in DMEM supplemented with 10% FBS. HUVECs were plated into 6-well plates. When the cells reached 70-80% confluence, they were treated with 200 nM of each of 5 molecules for 30 min, and subsequently exposed to […] ox-LDL for 6 h. After washing with PBS, the medium was replaced, and then monocytes ([…]) were added to each well (4 wells/group) onto HUVECs. Thirty minutes later, the medium containing monocytes were aspired and the unattached monocytes were carefully washed out with PBS. Five fields of each well were randomly captured under a microscope. The number of adherent monocyte was counted and averaged.

Row | SMILES | effect on ox-LDL-induced VCAM-1 protein expression [1] | effect on ox-LDL-induced VCAM-1 protein expression ([1]; listed as MoL-4) | effect on ox-LDL-mediated VCAM-1 mRNA upregulation (VCAM-1 mRNA) | reduction of monocyte adhesion [2] [%] | effect on monocyte adhesion to HUVECs (in words) [2]
1 | CCCn1c(CCNC(=O)CCCO)nc2ccccc21 [Mol-4] | significantly inhibited | significantly reduced | significantly reduced; also recorded: significantly inhibited | 30 | decreased the number of monocytes adherent to HUVECs; also recorded: markedly inhibited
2 | CCOCCCNC(=O)CCN1C(=O)COc2ccccc21 [Mol-1] | significantly reduced |  |  | 25 | decreased the number of monocytes adherent to HUVECs; also recorded: markedly inhibited
3 | Cc1cc(C)n(CC(O)COc2ccccc2)n1 (stereo not drawn) [Mol-5, 1-(3,5-dimethyl-1H-pyrazol-1-yl)-3-phenoxypropan-2-ol] | significantly reduced; also recorded: significantly inhibited |  | significantly reduced; also recorded: significantly inhibited | 35 | decreased the number of monocytes adherent to HUVECs; also recorded: markedly inhibited

From patent publication US11465972B2, “Inhibitors of oxidized low-density lipoprotein receptor 1 and methods of use thereof” (United States Government as represented by the Department …, priority 2015, dated 2022)
